Data reported in patent US10813891B2, “Method of inhibiting chronification of pain” (priority 2011, dated 2020).

Columns and labels:
Type in all cases: in vivo, rat
[1] = system: mRNA encoding ATF3, IL-6 and BDNF; experiment: Real time qRT-PCR of mRNA in DRG and lumbar spinal cord of CCI-SN rats; conditions: subchronic 10 mg/kg i.p. twice daily; ipsilateral L4-L6 DRG and dorsal quadrant of lumbar enlargement; 4 h after last injection
Protocol: (§1) Subchronic treatment consisted of twice daily injections of tapentadol (10 mg/kg, i.p. at 10:00 am and 6:00 pm) or saline for 4 days starting on the 15th day after nerve ligation in both CCI-ION and CCI-SN rats. Animals were further injected with tapentadol (10 mg/kg i.p.) or saline at 10:00 am the following day (19th day post-surgery), and assessment of allodynia with von Frey filament tests (see below) was made at various times up to 4 hours after this injection. All rats were killed by decapitation 4 hours after the last injection for real-time qRT-PCR determinations of specific mRNAs in ganglia and central tissues (see below).
Animals used for qRT-PCR procedure were decapitated immediately after performance of von Frey filament test four hours after the last injection of tapentadol or saline for subchronic treatment conditions (see above). […]
First-stranded cDNA synthesis (from 660 ng total RNA per 20 μl reaction mixture) was carried out using SuperScript™ III Reverse Transcriptase and random primers (250 ng per reaction), as recommended by the manufacturer (Invitrogen, Cergy Pontoise, France). […] Semi-quantitative determinations were made with reference to the reporter gene encoding glyceraldehyde 3-phosphate dehydrogenase (GaPDH; Rn99999916_sl). […] Specific mRNA levels were calculated after normalizing from GaDPH mRNA in each sample (Latrémolière et al., 2008). […]

CCI-ION rats = system: CCI-ION rats
Protocol: (§2) Male Sprague-Dawley rats (Charles River Laboratories, L'Arbresle, France), weighing 150-200 g on arrival, were used. Animals were maintained under controlled environmental conditions (22±1° C., 60% relative humidity, 12 h/12 h light/dark cycle, food and water ad libitum) starting from reception in the laboratory, for at least 1 week before any intervention or treatment and thereafter, until euthanasia.
Rats were anaesthetized with sodium pentobarbital (50 mg/kg i.p.). Unilateral CCI-ION was performed under direct visual control using a Zeiss microscope (10-25×). Briefly, the head was fixed in a Horsley-Clarke stereotaxic frame and a midline scalp incision was made, exposing skull and nasal bone. The edge of the orbit, formed by the maxillary, frontal, lacrimal, and zygomatic bones, was dissected free. The orbital contents were then gently deflected to give access to the infraorbital nerve which was dissected free at its most rostral extent in the orbital cavity, just caudal to the infraorbital foramen. Only 5 mm of the nerve could be freed, providing the space for placement of two chromic catgut (5-0) ligations tied loosely (with about 2 mm spacing) around it. […] Finally, scalp incision was closed using silk sutures (4-0). In sham-operated rats, the ION was exposed using the same procedure, but was not ligated.
(§3) Tapentadol (1, 3 and 10 mg/kg i.p.), reboxetine (10 mg/kg i.p.), morphine (1 and 3 mg/kg s.c.) or their vehicle (0.9% NaCl) were injected acutely 14 days after surgery, when allodynia/hyperalgesia reached a plateau in both CCI-SN and CCI-ION rats. Behavioral tests were performed at various times for up to 4 h after injection. In drug association procedure, reboxetine or saline was administered 15 min before morphine or saline.
as §1
Rats were placed individually in small (35×20×15 cm) plastic cages for a 2 h habituation period. Before any stimulation session, rats freely explored the observation cage and the testing environments for 2 h. Then mechanical sensitivity was determined with a graded series of […] von Frey filaments (Bioseb, Bordeaux, France). The filaments produced a bending force of 0.40, 0.60, 1.00, 2.00, 4.00, 6.00, 8.00, 10.00 and 12.00 g, respectively. The stimuli were applied within the ION territory (vibrissae pad) three times on the nerve-injured side and then on the contralateral side for a total of 6 applications of each filament per rat, always beginning with the filament producing the lowest force. The von Frey filaments were applied at least 3 seconds after the rat had returned to its initial resting state. For each session, the complete series of von Frey filaments was tested in increasing force order. […] The latter responses represented the highest scores in the rank-ordered response scoring system initially described by Vos et al. (1994). Under our own conditions, the mechanical response threshold was determined as the minimal force filament causing at least one among these responses to at least 2 out of the 3 applications in vibrissae territory. […] To avoid nonspecific responses, only these rats were included in the study.

CCI-SN rats = experiment: Paw pressure (Randall-Selitto) test in CCI-SN rats; conditions: 10 mg/kg i.p.
Protocol: as §2
Rats were anaesthetized as above and the common sciatic nerve was exposed. Using a dissection microscope (2× magnification), four chromic catgut (5-0) ligations were tied loosely with about 1 mm spacing, proximally to the sciatic trifurcation (Bennett and Xie, 1988). Finally, the skin and muscle were sewed using silk sutures (4-0). In sham-operated animals, the same surgery was performed, but the nerve was not ligated.
as §3

CC[C@@H](c1cccc(O)c1)[C@@H](C)CN(C)C [Tapentadol, (−)-(1R,2R)-3-(3-dimethylamino-1-ethyl-2-methyl-propyl)-phenol]
levels of mRNA encoding ATF3, IL-6 and BDNF, tapentadol vs saline [1]: not significantly different
anti-allodynic effect after subchronic pretreatment vs saline pretreatment (CCI-ION rats; 10 mg/kg i.p. twice daily for four days, challenge 10 mg/kg i.p. day 19): had the same characteristics (amplitude, duration)
increase in pressure threshold value compared to saline-treated CCI-ION rats (CCI-ION rats; acute 1 mg/kg i.p., first 45 min): up to 6 fold
duration of statistically significant anti-allodynic effect (CCI-ION rats; acute 10 mg/kg i.p.): at least two hours
pressure threshold values higher than those determined prior to injection (CCI-ION rats; acute 10 mg/kg i.p., 30-60 min after injection): 15-20 fold
duration of increase in pressure threshold values (CCI-SN rats): at least 60 min
pressure threshold values to trigger vocalization, vs untreated healthy rats (CCI-SN rats; first 45 min after administration): +20%
pressure threshold values to cause hindpaw withdrawal (CCI-SN rats; first hour after treatment, vs intact healthy rats): did not significantly differ from those determined in intact healthy rats
